In US20120264735A1 (priority 2009, published 2012):

What follows are compounds tested against T1, c-Met kinase (recombinant c-Met) (Homo sapiens, UniProt P08581) (assay: In vitro kinase assay I (homogeneous time-resolved fluorescence tyrosine kinase assay)).
T1 construct: 0.27 nM recombinant c-Met
Type: biochemical
Procedure: The kinase activities of c-Met are measured using a modified version of the homogeneous-time-resolved tyrosine kinase assay described by Park et al. (1999, Anal. Biochem. 269:94-104).
The procedure for determining the potency of a compound to inhibit c-Met kinase comprises the following steps: • 1. Prepare 3-fold serial diluted compound solutions in 100% dimethyl sulfoxide (DMSO) at 20× of the desired final concentrations in a 384-well plate. • 2. Prepare a master reaction mix containing 6.67 mM MgCl2, 133.3 mM NaCl, 66.7 mM Tris-HCl (pH 7.4), 0.13 mg/ml BSA, 2.67 mM dithiothreitol, 0.27 nM recombinant c-Met and 666.7 nM biotinylated synthetic peptide substrate (biotin-ahx-EQEDEPEGDYFEWLE-CONH2) (SEQ.ID.NO.:1). • 3. In a black assay plate, add 1.5 μl of compound solution (or DMSO) and 22.5 μl of master reaction mix per well. Initiate the kinase reaction by adding 6 μl of 0.25 mM MgATP per well. Allow the reactions to proceed for 60 min at room temperature. The final conditions for the reaction are 0.2 nM c-Met, 0.5 μM substrate, 50 μM MgATP, 5 mM MgCl2, 100 mM NaCl, 2 mM DTT, 0.1 mg/ml BSA, 50 mM Tris (pH 7.4) and 5% DMSO. • 4. Stop the kinase reaction with 30 μl of Stop/Detection buffer containing 10 mM EDTA, 25 mM HEPES, 0.1% TRITON X-100, 0.750 nM Eu-chelate labeled anti-phosphotyrosine antibody PY20 (cat. #AD0067, PerkinElmer) and 50 μg/ml Streptavidin-allophycocyanin conjugate (cat. #PJ25S, Prozyme). • 5. Read HTRF signals on a Victor reader (PerkinElmer) in HTRF mode after 60-min incubation at room temperature in the dark. • 6. IC50 is determined by fitting the observed relationship between compound concentration and HTRF signal with a 4-parameter logistic equation. II. GTL-16 pY1349 Cell-Based Assay

T1 sequence (P08581 25-1390): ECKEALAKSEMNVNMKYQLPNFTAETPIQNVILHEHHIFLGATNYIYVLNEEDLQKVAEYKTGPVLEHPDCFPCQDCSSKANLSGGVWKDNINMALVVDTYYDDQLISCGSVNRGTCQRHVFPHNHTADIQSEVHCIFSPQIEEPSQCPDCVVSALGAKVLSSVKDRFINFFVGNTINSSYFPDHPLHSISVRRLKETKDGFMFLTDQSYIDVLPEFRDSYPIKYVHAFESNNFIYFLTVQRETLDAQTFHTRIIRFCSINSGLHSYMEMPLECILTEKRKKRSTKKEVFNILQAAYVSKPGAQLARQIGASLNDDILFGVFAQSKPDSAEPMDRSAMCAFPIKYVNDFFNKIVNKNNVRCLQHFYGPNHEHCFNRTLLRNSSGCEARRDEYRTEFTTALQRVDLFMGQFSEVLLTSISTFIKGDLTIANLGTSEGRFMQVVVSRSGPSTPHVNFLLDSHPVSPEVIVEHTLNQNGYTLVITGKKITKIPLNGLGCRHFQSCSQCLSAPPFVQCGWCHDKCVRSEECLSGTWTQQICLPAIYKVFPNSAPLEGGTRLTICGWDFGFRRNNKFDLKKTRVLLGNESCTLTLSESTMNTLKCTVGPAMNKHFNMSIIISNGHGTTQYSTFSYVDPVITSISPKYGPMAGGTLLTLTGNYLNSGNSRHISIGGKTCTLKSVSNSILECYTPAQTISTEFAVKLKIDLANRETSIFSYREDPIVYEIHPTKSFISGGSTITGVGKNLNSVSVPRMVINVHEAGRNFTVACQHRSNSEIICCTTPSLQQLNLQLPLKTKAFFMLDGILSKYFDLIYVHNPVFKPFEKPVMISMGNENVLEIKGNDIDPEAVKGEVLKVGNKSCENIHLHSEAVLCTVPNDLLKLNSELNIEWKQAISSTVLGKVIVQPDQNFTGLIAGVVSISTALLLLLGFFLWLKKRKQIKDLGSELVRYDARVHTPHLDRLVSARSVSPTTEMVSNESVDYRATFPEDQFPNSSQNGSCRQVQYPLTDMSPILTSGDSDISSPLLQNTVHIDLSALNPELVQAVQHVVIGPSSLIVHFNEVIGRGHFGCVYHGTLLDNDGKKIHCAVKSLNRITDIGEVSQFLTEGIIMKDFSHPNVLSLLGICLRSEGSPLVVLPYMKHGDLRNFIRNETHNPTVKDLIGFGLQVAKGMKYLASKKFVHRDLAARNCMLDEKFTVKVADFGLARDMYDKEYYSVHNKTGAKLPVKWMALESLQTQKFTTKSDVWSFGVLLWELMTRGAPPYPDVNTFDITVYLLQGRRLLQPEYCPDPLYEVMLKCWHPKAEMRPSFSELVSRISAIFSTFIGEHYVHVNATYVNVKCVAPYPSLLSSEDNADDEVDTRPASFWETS

IC50 [nM] | Structure (SMILES)
< 100 | Cn1cc(-n2ccc(=O)c(Cc3cccc(NC(=O)OCCCCO)c3)n2)cn1 [Example 572, 4-hydroxybutyl (3-{[1-(1-methyl-1H-pyrazol-4-yl)-4-oxo-1,4-dihydropyridazin-3-yl]methyl}phenyl)carbamate]
< 100 | Cn1cc(-n2ccc(=O)c(Cc3cccc(-c4ncc(-c5ccc(C#N)nc5)cn4)c3)n2)cn1 [Example 413, 5-[2-(3-{[1-(1-methyl-1H-pyrazol-4-yl)-4-oxo-1,4-dihydropyrida-zin-3-yl]methyl}phenyl)pyrimidin-5-yl]pyridine-2-carbonitrile]
< 100 | CCn1cnc(-c2cccc(Cc3nn(-c4ccc(F)c(F)c4)ccc3=O)c2)n1 [Example 82, 1-(3,4-difluorophenyl)-3-[3-(1-ethyl-1H-1,2,4-triazol-3-yl)benzyl]pyridazin-4(1H)-one]
< 100 | CCCNC(=O)Nc1cccc(Cc2nn(-c3cnn(C)c3)ccc2=O)c1 [Example 489, 1-(3-{[1-(1-methyl-1H-pyrazol-4-yl)-4-oxo-1,4-dihydropyridazin-3-yl]methyl}phenyl)-3-propylurea]
< 100 | Cn1cc(-n2ccc(=O)c(Cc3cccc(NC(=O)OCCC(F)(F)F)c3)n2)cn1 [Example 564, 3,3,3-trifluoropropyl (3-{[1-(1-methyl-1H-pyrazol-4-yl)-4-oxo-1,4-dihydropyridazin-3-yl]methyl}phenyl)carbamate]
< 100 | Cn1cc(-n2ccc(=O)c(Cc3cccc(-c4ncc(-c5cc[nH]n5)cn4)c3)n2)cn1 [Example 420, 1-(1-methyl-1H-pyrazol-4-yl)-3-{3-[5-(1H-pyrazol-3-yl)pyrimidin-2-yl]benzyl}pyridazin-4(1H)-one]
100 to 1000 | CN(C)C(=O)CCn1cnc(-c2cccc(Cc3nn(-c4cnn(C)c4)ccc3=O)c2)n1 [Example 710, N,N-dimethyl-3-[3-(3-{[1-(1-methyl-1H-pyrazol-4-yl)-4-oxo-1,4-dihydropyridazin-3-yl]methyl}phenyl)-1H-1,2,4-triazol-1-yl]propanamide]
< 100 | COCC(=O)Nc1cnc(-c2cccc(Cc3nn(-c4cnn(C)c4)ccc3=O)c2)nc1 [Example 461, 2-methoxy-N-[2-(3-{[1-(1-methyl-1H-pyrazol-4-yl)-4-oxo-1,4-dihydro-pyridazin-3-yl]methyl}phenyl)pyrimidin-5-yl]acetamide]
< 100 | Cn1cc(-n2ccc(=O)c(Cc3cccc(-c4ncc(O[C@@H]5CCC[C@H]5O)cn4)c3)n2)cn1 (single isomer, unassigned) [Example 378]
< 100 | Cn1cc(-n2ccc(=O)c(Cc3cccc(-c4ncc(OCc5noc(C6CC6)n5)cn4)c3)n2)cn1 [Example 282, 3-(3-{5-[(5-cyclopropyl-1,2,4-oxadiazol-3-yl)methoxy]pyrimidin-2-yl}benzyl)-1-(1-methyl-1H-pyrazol-4-yl)pyridazin-4(1H)-one]
< 100 | Cn1cc(-n2ccc(=O)c(Cc3cccc(-c4ncc(OCC5CCOC5)cn4)c3)n2)cn1 (racemic) [Example 266, rac-1-(1-methyl-1H-pyrazol-4-yl)-3-{3-[5-(tetrahydrofuran-3-ylmethoxy)pyrimidin-2-yl]benzyl}pyridazin-4(1H)-one]
< 100 | CCc1nc(-c2cccc(Cc3nn(-c4cnn(C)c4)ccc3=O)c2)no1 [Example 739, 3-[3-(5-Ethyl-1,2,4-oxadiazole-3-yl)benzyl]-1-(1-methyl-1H-pyrazol-4-yl)pyridazin-4(1H)-one]

Further lines, the compound ahead of its results:

Structure (SMILES) | IC50 [nM]
CCn1cc(-n2ccc(=O)c(C(C)c3cccc(-c4ncc(OCC5CCNCC5)cn4)c3)n2)cn1 (single isomer, unassigned) [Example 339, 1-(1-ethyl-1H-pyrazol-4-yl)-3-((1R or S)-1-{3-[5-(piperidin-4-ylmethoxy)pyrimidin-2-yl]phenyl}ethyl)pyridazin-4(1H)-one] | < 100
O=C(Nc1cccc(Cc2nn(-c3cc(F)c(F)c(F)c3)ccc2=O)c1)OCC1CCCC1 [Example 556, cyclopentylmethyl (3-{[4-oxo-1-(3,4,5-trifluorophenyl)-1,4-dihydropyridazin-3-yl]methyl}phenyl)carbamate] | < 100
CC(c1cccc(-c2ncc(OCC(C)(C)O)cn2)c1)c1nn(-c2cnn(C)c2)ccc1=O (single isomer, unassigned) [Example 380, 3-((1S or R)-1-{3-[5-(2-hydroxy-2-methylpropoxy)pyrimidin-2-yl]phenyl}ethyl)-1-(1-methyl-1H-pyrazol-4-yl)pyridazin-4(1H)-one] | < 100
CC(c1cccc(-c2ncc(OC3COC3)cn2)c1)c1nn(-c2cnn(C)c2)ccc1=O (single isomer, unassigned) [Example 215, 1-(1-methyl-1H-pyrazol-4-yl)-3-((1S or R)-1-{3-[5-(oxetan-3-yloxy)pyrimidin-2-yl]phenyl}ethyl)pyridazin-4(1H)-one] | 100 to 1000
CCOc1cnc(-c2cccc(Cc3nn(-c4cncc(C#N)c4)ccc3=O)c2)nc1 [Example 136, 5-{3-[3-(5-ethoxypyrimidin-2-yl)benzyl]-4-oxopyridazin-1(4H)-yl}pyridine-3-carbonitrile] | < 100
CCn1cc(-n2ccc(=O)c(Cc3cccc(NC(=O)OCC(C)C)c3)n2)cn1 [Example 110, 2-methylpropyl (3-{[1-(1-ethyl-1H-pyrazol-4-yl)-4-oxo-1,4-dihydropyridazin-3-yl]methyl}phenyl)carbamate] | < 100
CCOC(=O)Nc1cccc(Cc2nn(-c3cnn(CCO)c3)ccc2=O)c1 [Example 643, Ethyl [3-({1-[1-(2-hydroxyethyl)-1H-pyrazol-4-yl]-4-oxo-1,4-dihydropyridazin-3-yl}methyl)phenyl]carbamate] | < 100
CN1CCN(CCCOC(=O)Nc2cccc(Cc3nn(-c4cc(F)c(F)c(F)c4)ccc3=O)c2)CC1 [Example 511, 3-(4-methylpiperazin-1-yl)propyl(3-{[4-oxo-1-(3,4,5-trifluorophenyl)-1,4-dihydropyridazin-3-yl]methyl}phenyl)carbamate] | < 100
CC(C)COC(=O)Nc1cccc(Cc2nn(-c3cnn(C4CCOC4)c3)ccc2=O)c1 (racemic) [Example 99, rac-2-methylpropyl [3-({4-oxo-1-[1-(tetrahydrofuran-3-yl)-1H-pyrazol-4-yl]-1,4-dihydropyridazin-3-yl}methyl)phenyl]carbamate] | < 100
Cn1cc(-n2ccc(=O)c(Cc3cccc(NC(=O)OCC4CC(C)(C)OC(C)(C)C4)c3)n2)cn1 [Example 609, (2,2,6,6-tetramethyltetra-hydro-2H-pyran-4-yl)methyl (3-{[1-(1-methyl-1H-pyrazol-4-yl)-4-oxo-1,4-dihydropyridazin-3-yl]methyl}phenyl)carbamate] | < 100
COCCOc1cnc(-c2cccc(Cc3nn(-c4ccc(F)c(F)c4)ccc3=O)c2)nc1 [Example 317, 1-(3,4-difluorophenyl)-3-{3-[5-(2-methoxyethoxy)pyrimidin-2-yl]benzyl}pyridazin-4(1H)-one] | < 100
CCOc1cnc(-c2cccc(C(C)c3nn(-c4cnn(CC)c4)ccc3=O)c2)nc1 (single isomer, unassigned) [Example 245, 3-{(1S or R)-1-[3-(5-ethoxypyrimidin-2-yl)phenyl]ethyl}-1-(1-ethyl-1H-pyrazol-4-yl)pyridazin-4(1H)-one] | 100 to 1000
CC(C)COC(=O)Nc1cccc(Cc2nn(-c3ccn(C)n3)ccc2=O)c1 [Example 26, 2-methylpropyl (3-{[1-(1-methyl-1H-pyrazol-3-yl)-4-oxo-1,4-dihydropyridazin-3-yl]methyl}phenyl)carbamate] | < 100
CCOC(=O)Nc1cccc(Cc2nn(-c3ccc(F)c(F)c3)ccc2=O)c1 [Example 504, ethyl (3-{[1-(3,4-difluorophenyl)-4-oxo-1,4-dihydropyridazin-3-yl]methyl}phenyl)carbamate] | < 100
CC(c1cccc(-c2ncc(-c3cnn(C)c3)cn2)c1)c1nn(-c2ccc(F)c(F)c2)ccc1=O (single isomer, unassigned) [Example 238, 1-(3,4-difluorophenyl)-3-[(1S or R)-1-{3-[5-(1-methyl-1H-pyrazol-4-yl)pyrimidin-2-yl]phenyl}ethyl]pyridazin-4(1H)-one] | 100 to 1000
CCOCCOc1cnc(-c2cccc(Cc3nn(-c4ccc(F)c(F)c4)ccc3=O)c2)nc1 [Example 321, 1-(3,4-difluorophenyl)-3-{3-[5-(2-ethoxyethoxy)pyrimidin-2-yl]benzyl}pyridazin-4(1H)-one] | < 100
CCCOC(=O)Nc1cccc(Cc2nn(-c3cnn(C4CCOC4)c3)ccc2=O)c1 (racemic) [Example 98, rac-propyl [3-({4-oxo-1-[1-(tetrahydrofuran-3-yl)-1H-pyrazol-4-yl]-1,4-dihydropyridazin-3-yl}methyl)phenyl]carbamate] | < 100
O=c1ccn(-c2ccc(Cl)cc2)nc1Cc1ccc2ncccc2c1 [Example 43, 1-(4-chlorophenyl)-3-(quinolin-6-ylmethyl)pyridazin-4(1H)-one] | 100 to 1000
